Marks after values point to notes of the source that are not given here.
How the values were obtained:
GABAA, Muscimol, Central = experiment: Receptor binding 226500; set-up: species or system rat; conditions: 10 μM
Procedure: (§1) Radioligand binding to a panel of receptors was carried out by Eurofins on crude membrane preparations according to published procedures and by using appropriate reference standard (Eurofins, CVie 101 compound code PT #1207859, study #AB76416, quote #68407-1, for Cvie Therapeutics Limited, Taiwan (R.OC.) on Mar. 5, 2017). CVie 101 was tested at the concentration of 10 μM. No significant interaction was documented, except for Sodium Channel, site 2 from rat (cat #279510), where a significant response (≥50%) was noted (Table 7).

Insulin = target: T1, Insulin (Rattus norvegicus, UniProt P15127); experiment: Receptor binding 243000
T1 construct: Eurofins (contract assay) 243000
Procedure: as §1

[1] = Acute toxicity (LD50) in mouse; conditions: Albino Swiss CD-1, in vivo, single administration
Procedure: 194. Acute toxicity has been determined in the mouse (Albino Swiss CD-1, body weight 30 g). Mice were orally treated, or intravenously injected, with single administration of increasing doses of the test substance to identify the dose causing 50% mortality. Mortality occurred within 30 min after the administration and survival after 24 h. The acute toxicity (LD50) was then assessed.
The acute toxicity of the tested compound CVie 101 has been determined in the mouse (Albino Swiss CD-1, body weight 30 g). CVie 101 has been orally administered or intravenously injected at increasing doses to identify the dose causing 50% mortality. Mortality occurred within 30 min after the administration and survival after 24 h.

hERG potassium channel = target: T2, hERG potassium channel (Homo sapiens, UniProt Q12809); experiment: Receptor binding 265900; conditions: crude membrane preparations
T2 construct: Eurofins (contract assay) 265900
Procedure: as §1

Estrogen ERα = target: T3, Estrogen ERα (Homo sapiens, UniProt P03372); experiment: Receptor binding 226010
T3 construct: Eurofins (contract assay) 226010
Procedure: as §1

[2] = system: GABAA, Flunitrazepam, Central; experiment: Receptor binding 226600; set-up: species or system rat; conditions: 10 μM
Procedure: as §1

Sigma σ1 = target: T4, Sigma σ1 (Homo sapiens, UniProt Q99720); experiment: Receptor binding 278110
T4 construct: Eurofins (contract assay) 278110
Procedure: as §1

[3] = system: Glutamate, NMDA, Phencyclidine; experiment: Receptor binding 233000; set-up: species or system rat; conditions: 10 μM
Procedure: as §1

Progesterone PR-B = target: T5, Progesterone PR-B (Homo sapiens, UniProt P06401); experiment: Receptor binding 299005
T5 construct: Eurofins (contract assay) 299005
Procedure: as §1

Phosphodiesterase PDE3 = target: T6, Phosphodiesterase PDE3 (Homo sapiens, UniProt Q14432); experiment: Eurofins panel 152000; format: biochemical
T6 construct: Eurofins 152000
Procedure: as §1

Sigma σ2 = target: T7, Sigma σ2 (Homo sapiens, UniProt Q5BJF2); experiment: Receptor binding 299007
T7 construct: Eurofins (contract assay) 299007
Procedure: as §1

Opiate μ(OP3, MOP) = target: T8, Opiate μ(OP3, MOP) (Homo sapiens, UniProt P35372); experiment: Receptor binding 260410
T8 construct: Eurofins (contract assay) 260410
Procedure: as §1

Dopamine D1 = target: T9, Dopamine D1 (Homo sapiens, UniProt P21728); experiment: Receptor binding 219500
T9 construct: Eurofins 219500; host or cells: crude membrane preparation
Procedure: as §1

Adrenergic α2A = target: T10, Adrenergic α2A (Homo sapiens, UniProt P08913); experiment: Receptor binding 203630
T10 construct: Eurofins 203630; host or cells: crude membrane preparation
Procedure: as §1

dog renal Na,K-ATPase = target: T11, dog renal Na,K-ATPase (Canis lupus familiaris, UniProt P50997); experiment: Inhibition of dog renal Na,K-ATPase activity (32P-ATP release); format: biochemical
T11 construct: incubated with 0.3 μg of purified dog kidney enzyme; from tissue; host or cells: dog kidney outer medulla
Procedure: Kidneys were sliced and the outer medulla was dissected, pooled and suspended (1 g/10 ml) in a sucrose-histidine solution, containing 250 mM sucrose, 30 mM histidine and 5 mM EDTA, pH 7.2 and homogenized. […] The pellet was suspended in the sucrose-histidine buffer and incubated for 20 min with a sodium-dodecyl-sulphate (SDS) solution dissolved in a gradient buffer, containing 25 mM imidazole and 1 mM EDTA, pH 7.5. […] The pellet was suspended in the gradient buffer.
Increasing concentrations of the standard ouabain, or tested compound, were incubated with 0.3 μg of purified dog kidney enzyme for 10 min at 37° C. in 120 μl final volume of a medium, containing 140 mM NaCl, 3 mM MgCl2, 50 mM Hepes-Tris, 3 mM ATP, pH 7.5. […] The inhibitory activity was expressed as percent of the control samples carried out in the absence of ouabain or tested compound.

SERCA2a = target: T12, SERCA2a (Canis lupus familiaris, UniProt O46674); experiment: SERCA2a ATPase activity in heart-derived SR microsomes from normal dog; format: biochemical; conditions: for Vmax (SERCA2a ATPase activity): mean ± SD
T12 construct: pre-incubated with 2 μg of microsomes; from tissue; host or cells: dog heart left ventricle, SR microsomes
Procedure: Left ventricle tissues were dissected, homogenized in 4 volumes of 10 mM NaHCO3, pH 7, 1 mM PMSF, 10 μg/ml Aprotinin and Leupeptin and centrifuged at 12,000 g for 15 minutes, as published (Nediani C. et al. J Biol Chem. 1996; 271:19066-73). Supernatants were filtered and centrifuged at 100,000 g for 30 min. Contractile proteins were extracted by suspending the pellets with 0.6 M KCl, 30 mM Histidine, pH 7 and further centrifugation at 100,000 g for 30 min. Final pellets were reconstituted with 0.3 M Sucrose, 30 mM Histidine, pH 7.
SERCA2a activity was measured “in vitro” as ^32P-ATP hydrolysis at different Ca^2+ concentrations (100-4000 nM) in the absence and presence of the tested compounds, as described (Micheletti R. et al. Am J Card 2007; 99:24A-32A). Increasing concentrations of each compound (from 1 to 100 nM) were pre-incubated with 2 μg of microsomes for 5 min at 4° C. in 80 μl of a solution containing 100 mM KCl, 5 mM MgCl2, 1 μM A23187, 20 mM Tris, pH 7.5. Then, 20 μl of 5 mM Tris-ATP containing 50 nCi of ^32P-ATP (3-10 Ci/mmol, Perkin Elmer) were added. The ATP hydrolysis was continued for 15 min at 37° C. and the reaction was stopped by acidification with 100 μl of 20% v/v ice-cold perchloric acid. ^32P was separated by centrifugation with activated charcoal (Norit A, SERVA) and the radioactivity was measured. SERCA2a-dependent activity was identified as the portion of total hydrolytic activity inhibited by 10 μM cyclopiazonic acid (Seidler N W. et al. J Biol Chem. 1989; 264:17816-23).
Dose-response curves were fitted by using a sigmoidal curve fitting software and the maximal velocity (Vmax) activity and the Kd Ca^2+ were calculated (Synergy Software KaleidaGraph 3.6).

T12 sequence (O46674 whole entry): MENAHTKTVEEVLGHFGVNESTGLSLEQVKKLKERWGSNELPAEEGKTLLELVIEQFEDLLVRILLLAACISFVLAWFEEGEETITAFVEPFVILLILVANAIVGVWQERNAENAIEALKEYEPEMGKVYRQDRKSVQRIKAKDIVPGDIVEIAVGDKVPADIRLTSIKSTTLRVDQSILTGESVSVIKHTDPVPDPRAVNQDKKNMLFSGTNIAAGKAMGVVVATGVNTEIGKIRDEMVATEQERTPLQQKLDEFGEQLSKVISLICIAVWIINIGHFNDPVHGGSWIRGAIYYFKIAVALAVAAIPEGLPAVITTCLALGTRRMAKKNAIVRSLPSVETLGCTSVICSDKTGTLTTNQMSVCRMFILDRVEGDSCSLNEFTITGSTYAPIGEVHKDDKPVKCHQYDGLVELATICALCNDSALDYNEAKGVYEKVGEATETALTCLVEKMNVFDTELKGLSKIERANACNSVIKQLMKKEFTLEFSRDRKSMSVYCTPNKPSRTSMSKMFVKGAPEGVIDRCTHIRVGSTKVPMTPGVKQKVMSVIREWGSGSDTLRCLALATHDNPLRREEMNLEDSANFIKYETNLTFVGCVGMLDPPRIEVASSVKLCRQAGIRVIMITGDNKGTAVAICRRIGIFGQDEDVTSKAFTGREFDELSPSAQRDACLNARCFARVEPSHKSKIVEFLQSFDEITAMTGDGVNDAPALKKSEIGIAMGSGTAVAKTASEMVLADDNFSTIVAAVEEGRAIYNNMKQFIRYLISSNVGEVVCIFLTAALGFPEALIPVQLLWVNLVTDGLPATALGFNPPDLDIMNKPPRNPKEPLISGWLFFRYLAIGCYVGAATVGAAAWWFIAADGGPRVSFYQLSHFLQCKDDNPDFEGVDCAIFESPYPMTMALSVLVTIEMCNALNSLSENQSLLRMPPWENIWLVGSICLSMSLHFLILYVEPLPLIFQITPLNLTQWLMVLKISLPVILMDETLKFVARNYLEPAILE
T5 sequence (P06401 whole entry): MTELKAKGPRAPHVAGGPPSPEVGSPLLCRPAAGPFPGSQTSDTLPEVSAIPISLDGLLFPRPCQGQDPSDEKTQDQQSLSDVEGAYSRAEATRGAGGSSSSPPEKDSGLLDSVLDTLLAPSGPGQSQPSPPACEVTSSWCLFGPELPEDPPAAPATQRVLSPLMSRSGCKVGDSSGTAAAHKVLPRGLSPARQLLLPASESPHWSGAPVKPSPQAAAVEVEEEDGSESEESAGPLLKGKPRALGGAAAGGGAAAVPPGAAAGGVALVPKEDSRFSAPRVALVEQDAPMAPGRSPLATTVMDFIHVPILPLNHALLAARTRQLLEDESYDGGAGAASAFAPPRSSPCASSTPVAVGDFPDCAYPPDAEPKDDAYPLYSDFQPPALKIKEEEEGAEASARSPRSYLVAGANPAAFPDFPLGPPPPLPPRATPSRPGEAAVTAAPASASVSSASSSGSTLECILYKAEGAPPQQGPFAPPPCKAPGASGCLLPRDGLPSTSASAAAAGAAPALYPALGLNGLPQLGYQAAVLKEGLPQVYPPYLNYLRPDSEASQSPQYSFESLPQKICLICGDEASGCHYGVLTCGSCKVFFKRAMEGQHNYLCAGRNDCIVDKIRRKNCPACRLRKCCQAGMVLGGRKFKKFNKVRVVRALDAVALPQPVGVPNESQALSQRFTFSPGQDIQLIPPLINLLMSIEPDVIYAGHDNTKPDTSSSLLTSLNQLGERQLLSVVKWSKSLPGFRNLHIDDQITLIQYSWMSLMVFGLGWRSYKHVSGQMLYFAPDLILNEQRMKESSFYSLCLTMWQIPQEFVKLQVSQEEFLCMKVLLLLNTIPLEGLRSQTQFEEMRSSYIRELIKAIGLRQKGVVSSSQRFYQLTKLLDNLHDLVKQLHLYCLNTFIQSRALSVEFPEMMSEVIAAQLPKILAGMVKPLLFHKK
T9 sequence (P21728 whole entry): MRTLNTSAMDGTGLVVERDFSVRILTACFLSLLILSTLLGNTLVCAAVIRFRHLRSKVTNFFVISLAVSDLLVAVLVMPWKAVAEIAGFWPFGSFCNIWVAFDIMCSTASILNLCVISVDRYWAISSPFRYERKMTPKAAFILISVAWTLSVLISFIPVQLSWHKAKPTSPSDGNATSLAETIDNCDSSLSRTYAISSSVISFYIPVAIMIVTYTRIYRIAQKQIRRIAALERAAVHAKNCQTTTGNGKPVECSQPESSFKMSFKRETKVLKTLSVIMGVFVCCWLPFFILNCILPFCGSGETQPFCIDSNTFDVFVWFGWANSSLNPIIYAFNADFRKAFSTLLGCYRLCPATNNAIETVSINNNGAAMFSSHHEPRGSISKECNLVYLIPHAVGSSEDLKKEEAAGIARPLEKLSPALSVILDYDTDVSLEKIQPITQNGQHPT
T6 sequence (Q14432 whole entry): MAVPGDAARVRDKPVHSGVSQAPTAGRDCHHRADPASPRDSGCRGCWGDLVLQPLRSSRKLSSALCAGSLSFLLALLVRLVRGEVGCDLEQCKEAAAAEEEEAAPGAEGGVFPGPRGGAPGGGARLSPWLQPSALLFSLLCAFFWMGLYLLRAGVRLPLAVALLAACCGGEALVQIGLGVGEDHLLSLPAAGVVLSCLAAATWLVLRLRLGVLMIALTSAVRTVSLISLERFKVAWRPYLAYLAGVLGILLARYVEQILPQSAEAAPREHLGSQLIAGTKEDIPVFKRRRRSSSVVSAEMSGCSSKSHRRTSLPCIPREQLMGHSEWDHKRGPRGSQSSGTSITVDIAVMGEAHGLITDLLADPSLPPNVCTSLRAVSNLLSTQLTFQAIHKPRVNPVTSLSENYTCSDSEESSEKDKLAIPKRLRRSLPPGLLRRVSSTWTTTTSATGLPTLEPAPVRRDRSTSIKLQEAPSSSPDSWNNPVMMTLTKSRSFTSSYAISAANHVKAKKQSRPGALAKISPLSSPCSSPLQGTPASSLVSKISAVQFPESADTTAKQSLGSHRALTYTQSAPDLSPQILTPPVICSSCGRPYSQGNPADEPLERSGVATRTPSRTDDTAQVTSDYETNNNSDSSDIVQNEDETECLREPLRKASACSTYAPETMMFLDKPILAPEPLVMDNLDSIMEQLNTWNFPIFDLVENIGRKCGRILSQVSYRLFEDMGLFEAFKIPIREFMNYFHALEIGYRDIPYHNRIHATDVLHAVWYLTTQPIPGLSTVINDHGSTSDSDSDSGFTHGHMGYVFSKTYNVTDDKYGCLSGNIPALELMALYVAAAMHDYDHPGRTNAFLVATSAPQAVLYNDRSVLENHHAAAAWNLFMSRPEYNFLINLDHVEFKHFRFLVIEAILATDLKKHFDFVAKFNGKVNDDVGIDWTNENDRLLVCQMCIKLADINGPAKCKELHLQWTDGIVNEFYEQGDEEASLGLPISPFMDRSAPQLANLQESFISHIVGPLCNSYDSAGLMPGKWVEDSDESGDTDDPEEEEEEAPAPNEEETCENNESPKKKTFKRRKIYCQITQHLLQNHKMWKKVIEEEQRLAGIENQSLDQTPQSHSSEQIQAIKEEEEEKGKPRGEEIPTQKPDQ
T10 sequence (P08913 whole entry): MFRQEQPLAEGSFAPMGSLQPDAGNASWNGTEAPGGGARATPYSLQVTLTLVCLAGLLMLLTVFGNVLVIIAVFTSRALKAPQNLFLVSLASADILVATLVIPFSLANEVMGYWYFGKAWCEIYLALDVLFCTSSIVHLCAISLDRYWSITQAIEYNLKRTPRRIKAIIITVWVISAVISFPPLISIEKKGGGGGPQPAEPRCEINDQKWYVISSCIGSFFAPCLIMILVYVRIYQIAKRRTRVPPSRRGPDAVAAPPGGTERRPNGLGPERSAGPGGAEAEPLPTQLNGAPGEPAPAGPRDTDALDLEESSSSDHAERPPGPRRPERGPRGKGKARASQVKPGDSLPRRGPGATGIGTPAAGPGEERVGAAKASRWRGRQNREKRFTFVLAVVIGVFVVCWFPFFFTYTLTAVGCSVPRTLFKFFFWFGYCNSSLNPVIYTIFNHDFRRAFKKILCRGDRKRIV
T7 sequence (Q5BJF2 whole entry): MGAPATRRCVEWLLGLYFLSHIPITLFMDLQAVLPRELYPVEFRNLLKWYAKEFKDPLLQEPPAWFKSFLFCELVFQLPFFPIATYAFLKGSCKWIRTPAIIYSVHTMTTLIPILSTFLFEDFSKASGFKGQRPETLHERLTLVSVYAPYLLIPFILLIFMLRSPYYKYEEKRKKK
T4 sequence (Q99720 whole entry): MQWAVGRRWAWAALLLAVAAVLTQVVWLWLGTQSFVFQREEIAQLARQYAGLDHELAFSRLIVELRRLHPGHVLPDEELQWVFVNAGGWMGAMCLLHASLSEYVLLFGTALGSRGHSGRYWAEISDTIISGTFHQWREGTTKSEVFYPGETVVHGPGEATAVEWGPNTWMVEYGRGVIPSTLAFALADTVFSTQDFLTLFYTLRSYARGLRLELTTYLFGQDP
T8 sequence (P35372 whole entry): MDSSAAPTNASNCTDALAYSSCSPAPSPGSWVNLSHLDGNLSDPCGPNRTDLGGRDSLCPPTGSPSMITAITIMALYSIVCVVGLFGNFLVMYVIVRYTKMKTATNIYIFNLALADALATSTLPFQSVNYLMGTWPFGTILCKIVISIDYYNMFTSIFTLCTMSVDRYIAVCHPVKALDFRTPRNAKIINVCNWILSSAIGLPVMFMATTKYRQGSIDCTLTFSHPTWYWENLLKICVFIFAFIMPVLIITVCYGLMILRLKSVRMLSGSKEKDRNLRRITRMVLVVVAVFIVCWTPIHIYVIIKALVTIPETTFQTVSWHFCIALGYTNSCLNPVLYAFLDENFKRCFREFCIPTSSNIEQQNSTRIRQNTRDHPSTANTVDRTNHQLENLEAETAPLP

With `C[C@]12CC[C@H](O)C[C@H]1CCC1C2CC[C@]2(C)[C@@H](c3c[nH]cn3)CC[C@]12O` (stereo partly drawn) [CVie 101, 3β-hydroxy-5β-10β-methyl-13β-methyl-14β-hydroxy-17β-(imidazol-4-yl)androstane] the “% inhib” value (GABAA, Muscimol, Central) was −9%, the inhibition at 10 µM (Insulin) was -7% and the LD50 at 24 h ([1]; iv) was 20 mg/kg. For the same compound, the LD50 at 24 h ([1]; oral, os) was 350 mg/kg, the inhibition at 10 µM (hERG potassium channel) was 4% and the inhibition at 10 µM (Estrogen ERα) was 14%. For the same compound, the “% inhib” value [2] was 6%, the inhibition at 10 µM (Sigma σ1) was 23% and the “% inhib” value [3] was 7%. It also gave an inhibition at 10 µM (Progesterone PR-B) of 10%, an inhibition at 10 µM (Phosphodiesterase PDE3) of -16% and an inhibition at 10 µM (Sigma σ2) of 30%. The inhibition at 10 µM (Opiate μ(OP3, MOP)) was 19%, the inhibition at 10 µM (Dopamine D1) was -5% and the inhibition at 10 µM (Adrenergic α2A) was -7%. For the same compound, the IC50 (dog renal Na,K-ATPase) was 710 nM, the “% increase vs Control (SERCA2a Vmax)” value (SERCA2a; compound 10 nM) was 15%* and the “Vmax (SERCA2a ATPase activity)” value (SERCA2a; compound 10 nM) was 2.737 ± 0.336 (n = 7) μmol/min/mg prot. The “% increase vs Control (SERCA2a Vmax)” value (SERCA2a; compound 100 nM) was 19%* and the “Vmax (SERCA2a ATPase activity)” value (SERCA2a; compound 100 nM) was 2.832 ± 0.198 (n = 7) μmol/min/mg prot.
